# Reference: ChEMBL document CHEMBL5126503, “Renieramycin-type alkaloids from marine-derived organisms: Synthetic chemistry, biological activity and structural modification” (Eur J Med Chem, 2021)
# Counter-ions that a name gives are not always drawn.
# What was measured:
# [1] = Cytotoxicity against human HEK293 cells assessed as cell growth inhibition; format: toxicity, cell-based
# [2] = system: A549; experiment: Cytotoxicity against human A549 cells assessed as cell growth inhibition by SRB assay; format: functional, cell-based
# [3] = system: HL-60; experiment: Cytotoxicity against human HL-60 cells assessed as cell growth inhibition by MTT assay; format: functional, cell-based
# [4] = system: HCT-116; experiment: Cytotoxicity against human HCT-116 cells assessed as cell growth inhibition; format: functional, cell-based
# [5] = system: QG-56; experiment: Cytotoxicity against human QG-56 cells assessed as cell growth inhibition; format: functional, cell-based
# [6] = system: NCI-H460; experiment: Cytotoxicity against human NCI-H460 cells assessed as cell growth inhibition; format: functional, cell-based
# [7] = system: DLD-1; experiment: Cytotoxicity against human DLD-1 cells assessed as cell growth inhibition; format: functional, cell-based
# [8] = system: NCI-H292; experiment: Antiproliferative activity against human NCI-H292 cells assessed as cell growth inhibition incubated for 4 hrs by MTT assay; format: functional, cell-based; settings: NCI-H292, 4 h
# [9] = system: HCT-116; experiment: Antiproliferative activity against human HCT-116 cells assessed as cell growth inhibition by MTT colorimetric assay; format: functional, cell-based
# [10] = system: MDA-MB-435; experiment: Antiproliferative activity against human MDA-MB-435 cells assessed as cell growth inhibition by MTT colorimetric assay; format: functional, cell-based
# [11] = system: HCT-116; experiment: Cytotoxicity against human HCT-116 cells assessed as cell growth inhibition incubated for 4 days by Cell counting kit-8 assay; format: functional, cell-based; settings: HCT-116, 96 h
# [12] = system: QG-56; experiment: Cytotoxicity against human QG-56 cells assessed as cell growth inhibition incubated for 4 days by Cell counting kit-8 assay; format: functional, cell-based; settings: QG-56, 96 h
# [13] = system: DU-145; experiment: Cytotoxicity against human DU-145 cells assessed as cell growth inhibition incubated for 4 days by Cell counting kit-8 assay; format: functional, cell-based; settings: DU-145, 96 h
# [14] = system: Malme-3M; experiment: Growth inhibition of human Malme-3M cells; format: functional
# [15] = system: Streptococcus pneumoniae; experiment: Antimicrobial activity against Streptococcus pneumoniae assessed as reduction in microbial growth by disk diffusion assay; format: functional
# [16] = system: Bacillus subtilis; experiment: Antimicrobial activity against Bacillus subtilis assessed as reduction in microbial growth by disk diffusion assay; format: functional
# [17] = system: Streptococcus pneumoniae; experiment: Antimicrobial activity against Penicillin resistant Streptococcus pneumoniae assessed as reduction in microbial growth by disk diffusion assay; format: functional
# [18] = system: Neisseria gonorrhoeae; experiment: Antimicrobial activity against Neisseria gonorrhoeae assessed as reduction in microbial growth by disk diffusion assay; format: functional
# [19] = system: Neisseria gonorrhoeae; experiment: Antimicrobial activity against Penicillin resistant Neisseria gonorrhoeae assessed as reduction in microbial growth by disk diffusion assay; format: functional
# [20] = system: T47D; experiment: Cytotoxicity against human T47D cells assessed as cell growth inhibition; format: functional, cell-based
# [21] = system: ASPC1; experiment: Cytotoxicity against human ASPC1 cells assessed as cell growth inhibition; format: functional, cell-based
# [22] = system: DU-145; experiment: Cytotoxicity against human DU-145 cells assessed as cell growth inhibition; format: functional, cell-based
# [23] = system: A549; experiment: Cytotoxicity against human A549 cells assessed as cell growth inhibition; format: functional, cell-based
# [24] = system: HL-60; experiment: Cytotoxicity against human HL-60 cells assessed as cell growth inhibition; format: functional, cell-based
compound,measurement,setting,value
C/C=C(/C)C(=O)OC[C@H]1C2=C(C[C@H]3[C@H]4C5=C(C[C@@H]([C@H](CC(C)=O)N13)N4C)C(=O)C(C)=C(OC)C5=O)C(=O)C(C)=C(OC)C2=O,IC50,[1],7100 nM
same,IC50,[2],> 100000 nM
same,IC50,[3],> 100000 nM
COC1=C(C)C(=O)C2=C(C1=O)[C@@H]1[C@@H]3CC4=C(C(=O)C(OC)=C(C)C4=O)[C@H](COC(C)=O)N3[C@@H](C#N)[C@H](C2)N1C [CYANOJORUMYCIN],IC50,[4],< 0.38 nM
same,IC50,[5],0.68 nM
C/C=C(/C)C(=O)OC[C@H]1C2=C(C[C@H]3[C@H]4c5c(O)c(OC)c(C)c(O)c5[C@@H](O)[C@@H]([C@H](C#N)N13)N4C)C(=O)C(C)=C(OC)C2=O,IC50,[4],5.6 nM
same,IC50,[5],11 nM
same,IC50,[6],6.7 nM
same,IC50,[7],5.7 nM
COC1=C(C)C(=O)C2=C(C1=O)[C@@H]1[C@@H]3CC4=C(C(=O)C(OC)=C(C)C4=O)[C@H](COC(=O)CNC(=O)OC(C)(C)C)N3[C@@H](C#N)[C@H](C2)N1C,IC50,[8],3.56 nM
CCC(=O)OC[C@H]1C2=C(C[C@H]3[C@H]4C5=C(C[C@@H]([C@H](C#N)N13)N4C)C(=O)C(C)=C(OC)C5=O)C(=O)C(C)=C(OC)C2=O [JORUNNAMYCIN C],IC50,[9],27.3 nM
same,IC50,[10],16.3 nM
same,IC50,[11],1.5 nM
same,IC50,[12],2.8 nM
same,IC50,[13],0.32 nM
C/C=C(/C)C(=O)OC[C@H]1C2=C(C=C3[C@H]4c5c(O)c(OC)c(C)c(O)c5C(=O)[C@@H](C(=O)N31)N4C)C(=O)C(C)=C(OC)C2=O [CRIBROSTATIN 5],GI50,[14],390 nM
same,MIC,[15],6.25 µg
same,MIC,[16],12.5 µg
same,MIC,[17],50 µg
same,MIC,[18],6.25 µg
same,MIC,[19],1.56 µg
C/C=C(/C)C(=O)OC[C@H]1c2c(c(OC(C)=O)c(C)c3c2OCO3)C[C@H]2[C@H]3C4=C(C[C@@H]([C@H](C#N)N12)N3C)C(=O)C(C)=C(OC)C4=O,IC50,[4],34 nM
same,IC50,[5],79 nM
same,IC50,[20],10 nM
same,IC50,[21],120 nM
COC1=C(C)C(=O)C2=C(C1=O)[C@H](COC(C)=O)N1[C@@H](C2)CN(C)C[C@@H]1C#N,IC50,[4],54 nM
same,IC50,[5],220 nM
same,IC50,[22],990 nM
COc1cccc2c1C(=O)c1c(O)c3c(c(O)c1C2=O)C[C@@](O)(C(=O)CO)C[C@@H]3O[C@H]1C[C@H](N)[C@H](O)[C@H](C)O1 [DOXORUBICIN HYDROCHLORIDE],IC50,[23],310 nM
COC1=C(C)C(=O)C2=C(C1=O)[C@H]1CN(C)[C@@H](C#N)[C@H](C2)N1C,IC50,[4],84 nM
same,IC50,[5],240 nM
C/C=C(/C)C(=O)OC[C@H]1C2=C(C[C@H]3[C@H]4C5=C(C(=O)C(C)=C(OC)C5=O)[C@H](O)[C@@H]([C@H](CC(C)=O)N13)N4C)C(=O)C(C)=C(O)C2=O,IC50,[23],> 100000 nM
same,IC50,[24],> 100000 nM
